# Values of other authors, collected in US20260008814A1, “DEVELOPMENT OF PEPTIDES WITH ANTI-CANCER AND ANTIMICROBIAL PROPERTIES” (YILDIZ TEKNIK ÜNIVERSITESI DÖNER SERMAYE ISLETME MÜD, priority 2023, published 2026).
# System: F. nucleatum attachment and invasion of HCT116
sequence,measurement,value
ASANWTIQYND,inhibition of F. nucleatum attachment and invasion,inhibitory peptide
